Values of other authors, collected in patent US6863905B1, “Enhanced iodine treatment of drinking water” (Shanbrom Technologies, LLC, priority 2002, dated 2005).
In brackets after ≈: the same amount, converted by molar mass.

Settings: at 20° C.

II [iodine]
solubility in water: 300 µg/mL (≈ 1180 µM)
